Test results published in ChEMBL document CHEMBL4308841, “Synthesis, in vitro antiproliferative activity, and kinase inhibitory effects of pyrazole-containing diarylureas and diarylamides” (Eur J Med Chem, 2018).

What was measured:
Type in all cases: functional
[1] = tested on: CCRF-CEM; experiment: Growth inhibition of human CCRF-CEM cells assessed as cell growth at 10 uM incubated for 48 hrs by sulforhodamine B assay relative to control; details: read-out: Activity
[2] = tested on: SK-OV-3; experiment: Growth inhibition of human SKOV3 cells assessed as cell growth at 10 uM incubated for 48 hrs by sulforhodamine B assay relative to control; details: SK-OV-3, 48 h, read-out: Activity
[3] = tested on: DU-145; experiment: Growth inhibition of human DU145 cells assessed as cell growth at 10 uM incubated for 48 hrs by sulforhodamine B assay relative to control; details: DU-145, 48 h, read-out: Activity
[4] = tested on: SNB-75; experiment: Growth inhibition of human SNB75 cells assessed as cell growth at 10 uM incubated for 48 hrs by sulforhodamine B assay relative to control; details: SNB-75, 48 h, read-out: Activity
[5] = tested on: ACHN; experiment: Growth inhibition of human ACHN cells assessed as cell growth at 10 uM incubated for 48 hrs by sulforhodamine B assay relative to control; details: read-out: Activity
[6] = tested on: HCT-116; experiment: Growth inhibition of human HCT116 cells assessed as cell growth at 10 uM incubated for 48 hrs by sulforhodamine B assay relative to control; details: HCT-116, 48 h, read-out: Activity
[7] = tested on: HOP-62; experiment: Growth inhibition of human HOP62 cells assessed as cell growth at 10 uM incubated for 48 hrs by sulforhodamine B assay relative to control; details: HOP-62, 48 h, read-out: Activity
[8] = tested on: MDA-MB-231; experiment: Growth inhibition of human MDA-MB-231 cells assessed as cell growth at 10 uM incubated for 48 hrs by sulforhodamine B assay relative to control; details: MDA-MB-231, 48 h, read-out: Activity
[9] = tested on: T47D; experiment: Growth inhibition of human T47D cells assessed as cell growth at 10 uM incubated for 48 hrs by sulforhodamine B assay relative to control; details: read-out: Activity
[10] = tested on: SF-539; experiment: Growth inhibition of human SF539 cells assessed as cell growth at 10 uM incubated for 48 hrs by sulforhodamine B assay relative to control; details: SF-539, 48 h, read-out: Activity
[11] = tested on: KM12; experiment: Growth inhibition of human KM12 cells assessed as cell growth at 10 uM incubated for 48 hrs by sulforhodamine B assay relative to control; details: KM12, 48 h, read-out: Activity
[12] = tested on: K562; experiment: Growth inhibition of human K562 cells assessed as cell growth at 10 uM incubated for 48 hrs by sulforhodamine B assay relative to control; details: K562, 48 h, read-out: Activity
[13] = tested on: MOLT-4; experiment: Growth inhibition of human MOLT4 cells assessed as cell growth at 10 uM incubated for 48 hrs by sulforhodamine B assay relative to control; details: MOLT-4, 48 h, read-out: Activity
[14] = tested on: SNB-19; experiment: Growth inhibition of human SNB19 cells assessed as cell growth at 10 uM incubated for 48 hrs by sulforhodamine B assay relative to control; details: SNB-19, 48 h, read-out: Activity
[15] = tested on: UACC-257; experiment: Growth inhibition of human UACC257 cells assessed as cell growth at 10 uM incubated for 48 hrs by sulforhodamine B assay relative to control; details: UACC-257, 48 h, read-out: Activity
[16] = tested on: IGROV-1; experiment: Growth inhibition of human IGROV1 cells assessed as cell growth at 10 uM incubated for 48 hrs by sulforhodamine B assay relative to control; details: IGROV-1, 48 h, read-out: Activity
[17] = tested on: HL-60(TB); experiment: Growth inhibition of human HL-60(TB) cells assessed as cell growth at 10 uM incubated for 48 hrs by sulforhodamine B assay relative to control; details: HL-60, 48 h, read-out: Activity
[18] = tested on: PC-3; experiment: Growth inhibition of human PC3 cells assessed as cell growth at 10 uM incubated for 48 hrs by sulforhodamine B assay relative to control; details: PC-3, 48 h, read-out: Activity
[19] = tested on: A549; experiment: Growth inhibition of human A549/ATCC cells assessed as cell growth at 10 uM incubated for 48 hrs by sulforhodamine B assay relative to control; details: A549, 48 h, read-out: Activity
[20] = tested on: NCI-H322M; experiment: Growth inhibition of human NCI-H322M cells assessed as cell growth at 10 uM incubated for 48 hrs by sulforhodamine B assay relative to control; details: read-out: Activity
[21] = tested on: A498; experiment: Growth inhibition of human A498 cells assessed as cell growth at 10 uM incubated for 48 hrs by sulforhodamine B assay relative to control; details: A498, 48 h, read-out: Activity
[22] = tested on: OVCAR-5; experiment: Growth inhibition of human OVCAR5 cells assessed as cell growth at 10 uM incubated for 48 hrs by sulforhodamine B assay relative to control; details: OVCAR-5, 48 h, read-out: Activity
[23] = tested on: OVCAR-3; experiment: Growth inhibition of human OVCAR3 cells assessed as cell growth at 10 uM incubated for 48 hrs by sulforhodamine B assay relative to control; details: OVCAR-3, 48 h, read-out: Activity
[24] = tested on: UACC-62; experiment: Growth inhibition of human UACC62 cells assessed as cell growth at 10 uM incubated for 48 hrs by sulforhodamine B assay relative to control; details: UACC-62, 48 h, read-out: Activity
[25] = tested on: NCI-H226; experiment: Growth inhibition of human NCI-H226 cells assessed as cell growth at 10 uM incubated for 48 hrs by sulforhodamine B assay relative to control; details: NCI-H226, 48 h, read-out: Activity
[26] = tested on: RPMI-8226; experiment: Growth inhibition of human RPMI8226 cells assessed as cell growth at 10 uM incubated for 48 hrs by sulforhodamine B assay relative to control; details: RPMI-8226, 48 h, read-out: Activity
[27] = tested on: SF-295; experiment: Growth inhibition of human SF295 cells assessed as cell growth at 10 uM incubated for 48 hrs by sulforhodamine B assay relative to control; details: SF-295, 48 h, read-out: Activity
[28] = tested on: U-251; experiment: Growth inhibition of human U251 cells assessed as cell growth at 10 uM incubated for 48 hrs by sulforhodamine B assay relative to control; details: U-251, 48 h, read-out: Activity
[29] = tested on: BT-549; experiment: Growth inhibition of human BT549 cells assessed as cell growth at 10 uM incubated for 48 hrs by sulforhodamine B assay relative to control; details: BT-549, 48 h, read-out: Activity
[30] = tested on: MDA-MB-468; experiment: Growth inhibition of human MDA-MB-468 cells assessed as cell growth at 10 uM incubated for 48 hrs by sulforhodamine B assay relative to control; details: MDA-MB-468, 48 h, read-out: Activity
[31] = tested on: SK-MEL-28; experiment: Growth inhibition of human SK-MEL-28 cells assessed as cell growth at 10 uM incubated for 48 hrs by sulforhodamine B assay relative to control; details: SK-MEL-28, 48 h, read-out: Activity
[32] = tested on: NCI/ADR-RES; experiment: Growth inhibition of human NCI/ADR-RES cells assessed as cell growth at 10 uM incubated for 48 hrs by sulforhodamine B assay relative to control; details: read-out: Activity
[33] = tested on: SR; experiment: Growth inhibition of human SR cells assessed as cell growth at 10 uM incubated for 48 hrs by sulforhodamine B assay relative to control; details: read-out: Activity

COc1cc(Cl)cc(-c2nn(-c3cccc(NC(=O)Nc4ccc(Cl)c(Cl)c4)c3)cc2-c2ccncc2)c1
growth at 10 µM [1]: 5.73%
growth at 10 µM [2]: 14.2%
growth at 10 µM [3]: 12.1%
growth at 10 µM [4]: 16.2%
growth at 10 µM [5]: 9.65%
growth at 10 µM [6]: 9.22%
growth at 10 µM [7]: 15.7%
growth at 10 µM [8]: -21%
growth at 10 µM [9]: 18.6%
growth at 10 µM [10]: 20.9%
growth at 10 µM [11]: 14.3%
growth at 10 µM [12]: 10%
growth at 10 µM [13]: -16.1%
growth at 10 µM [14]: 17.8%
growth at 10 µM [15]: -11.4%
growth at 10 µM [16]: 36.7%
growth at 10 µM [17]: -5.12%
growth at 10 µM [18]: -5.03%
growth at 10 µM [19]: 11.3%
growth at 10 µM [20]: 32.3%
growth at 10 µM [21]: -9.54%
growth at 10 µM [22]: 37.8%
growth at 10 µM [23]: 4.11%
growth at 10 µM [24]: 4.38%
growth at 10 µM [25]: 7.27%
growth at 10 µM [26]: -4.44%
growth at 10 µM [27]: -2.42%
growth at 10 µM [28]: 3.01%
growth at 10 µM [29]: 29.4%
growth at 10 µM [30]: 0.72%
growth at 10 µM [31]: 23.2%
growth at 10 µM [32]: 8.59%
growth at 10 µM [33]: -18.4%

COc1cc(Cl)cc(-c2nn(-c3cccc(NC(=O)c4cc(C(F)(F)F)cc(C(F)(F)F)c4)c3)cc2-c2ccncc2)c1
growth at 10 µM [1]: 57.1%
growth at 10 µM [2]: 83.4%
growth at 10 µM [3]: 78.2%
growth at 10 µM [4]: 60.8%
growth at 10 µM [5]: 58.2%
growth at 10 µM [6]: 35.2%
growth at 10 µM [7]: 103%
growth at 10 µM [8]: 56.7%
growth at 10 µM [9]: 53.4%
growth at 10 µM [10]: 80%
growth at 10 µM [11]: 55.5%
growth at 10 µM [12]: 38%
growth at 10 µM [13]: 55.3%
growth at 10 µM [14]: 86.4%
growth at 10 µM [15]: 79.3%
growth at 10 µM [16]: 100%
growth at 10 µM [17]: 84.3%
growth at 10 µM [18]: 35.6%
growth at 10 µM [19]: 43.5%
growth at 10 µM [20]: 80.3%
growth at 10 µM [21]: -1.74%
growth at 10 µM [22]: 83%
growth at 10 µM [23]: 25.5%
growth at 10 µM [24]: 81.4%
growth at 10 µM [25]: 76%
growth at 10 µM [26]: 43.6%
growth at 10 µM [27]: 42.1%
growth at 10 µM [28]: 60.7%
growth at 10 µM [29]: 96.8%
growth at 10 µM [30]: 46.5%
growth at 10 µM [31]: 78.8%
growth at 10 µM [32]: 67.8%
growth at 10 µM [33]: 41%
